{
  "source": "patent US9296687B2",
  "about": "“Modulators of HSP70/DnaK function and methods of use thereof” (The Trustees of the University of Pennsylvania, priority 2008, dated 2016)",
  "key": {"HSP70": {"biological_target": "HSP70 (Homo sapiens, UniProt P0DMV8)", "sequence (P0DMV8 whole entry)": "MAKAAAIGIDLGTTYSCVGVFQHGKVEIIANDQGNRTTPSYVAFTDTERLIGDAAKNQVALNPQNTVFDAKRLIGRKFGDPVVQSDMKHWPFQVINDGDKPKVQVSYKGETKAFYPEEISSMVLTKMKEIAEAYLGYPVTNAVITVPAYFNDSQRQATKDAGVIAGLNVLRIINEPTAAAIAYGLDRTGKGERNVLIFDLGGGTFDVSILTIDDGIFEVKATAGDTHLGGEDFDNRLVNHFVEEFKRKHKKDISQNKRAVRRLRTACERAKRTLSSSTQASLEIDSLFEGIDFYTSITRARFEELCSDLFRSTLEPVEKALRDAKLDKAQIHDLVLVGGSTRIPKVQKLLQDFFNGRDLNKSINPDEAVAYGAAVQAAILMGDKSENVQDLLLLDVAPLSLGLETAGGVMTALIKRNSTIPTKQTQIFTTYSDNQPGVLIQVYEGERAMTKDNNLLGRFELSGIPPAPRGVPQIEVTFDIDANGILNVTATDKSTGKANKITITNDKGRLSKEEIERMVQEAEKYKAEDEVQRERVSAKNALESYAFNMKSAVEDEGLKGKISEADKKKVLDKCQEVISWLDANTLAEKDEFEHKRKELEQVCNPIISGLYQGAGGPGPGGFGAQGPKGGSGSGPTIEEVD", "assay": "Competition of untagged PES with B-PES for HSP70", "assay_type": "binding", "design": "endogenous in cells; host or cells: human tumor cell lines (A875, BX-U2OS, U2OS, H1299, MiaPaCa2, HepG2, SKBR3, 293T)", "method": "FIG. 15. Evidence supporting HSP70 as the cellular target of PES. (A) Competition studies in vivo support HSP70 as a PES target. H1299 cells were either pre-treated with DMSO or excess (25×) untagged PES for 1 h prior to the addition of 20 μM Biotin-PES (B-PES) for 5 h, and examined for the expression of proteins indicated (left). B-PES-containing complexes were captured by NeutrAvidin Resins, and immunoblotted using the indicated antibodies. […] (B) Competition studies in vitro support HSP70 as a PES target. Purified HSP70 protein was incubated with 0.25 mM B-PES in the absence and in the presence of 0.125 mM untagged PES."}, "tumor cell lines": {"system": "tumor cell lines", "assay": "MTT cell viability assay", "assay_type": "cell-based, human", "method": "(§1) Cell viability assays were performed using an MTT (methyl thiazolyl tetrazolium) colorimetric assay (Roche Applied Science, Cat. No. 11 465 007 001), with the following modifications. Briefly, cells (1×10^4) were plated into 24 well-assay plates in 0.5 ml media and allowed to attach overnight. […] After the incubation period, 50 μl of the water-soluble MTT labeling reagent [3-[4,5-dimethylthiazol-2-yl]-2,5-diphenyl tetrazolium bromid] were added to the cells, and the cells were incubated for 4 h in a humidified chamber at 37° C. with 5% CO2. The metabolized insoluble formazan crystals were then solubilized using 0.5 ml of the Solubilization solution (10% SDS in 0.01M HCl) per well, and the resulting colored solutions were spectrophotometrically quantified at an absorbance of 570 nm."}, "MTT cell viability assay": {"assay": "MTT cell viability assay", "assay_type": "cell-based, human", "details": "human; 20 μM, all tumor cell lines examined; read-out: loss of cell viability", "method": "as §1"}, "MiaPaCa2 cells": {"system": "MiaPaCa2 cells", "assay": "Pulse-chase of newly synthesized proteins", "assay_type": "cell-based, human", "details": "20 μM, 3 h chase", "method": "FIG. 13. Cycloheximide Reduces PES-Induced Cytoplasmic Vacuolization. (A) Representative phase-contrast images of indicated tumor cell lines pretreated with DMSO or 1 μg/ml of cycloheximide (CHX) for 1 h, followed by the addition of 20 μM PES for 23 h. (B) The molecular chaperone HSP70 has been implicated in promoting proper folding of nascent polypeptides. […] Briefly, MiaPaCa2 cells were incubated in methionine/cysteine starvation medium for 30 min before adding [^35S]methionine/cysteine and DMSO or [^35S]methionine/cysteine and 20 μM PES, as indicated, to pulse for 1 h. Following the pulse, cells were immediately chased by complete medium for 0, 0.5, or 3 h, either in the presence of DMSO or 20 μM PES, as indicated. Cells were harvested at indicated time points, lysed in 1% NP40-containing buffer, and fractionated into detergent-soluble and detergent-insoluble preparations.\nThe cells were seeded at ˜50% confluency in 10 ml of DMEM/10% FBS/1× Pen-Strep using 100 mm dish. Next day, the cells were washed extensively in PBS and starved in “methionine/cysteine-free DMEM” (Invitrogen SKU#21013-024) with 5% dialyzed FBS and 1× Pen/Strep for 30 min. Either [^35S] Methionine/Cysteine (500 μCi) and DMSO or [^35S] Methionine/Cysteine (500 μCi) and 20 μM PES were added to the cells for 1 h. The cells were washed extensively to remove [^35S] […]"}, "[1]": {"system": "MCF7 human breast carcinoma cells", "assay": "MTT assay, PES followed by 17-AAG", "assay_type": "cell-based", "details": "5 μM PES 1 h, then 17-AAG 47 h", "method": "FIG. 17. PES impairs the proteasome system. (A) Cell-based 20S proteasome activity assay of H1299 or A875 human tumor cells treated with DMSO, 20 μM PES, 100 nM Velcade (proteasome inhibitor), 1 μM 17-AAG (HSP90 inhibitor), 5 μM CQ (lysosome inhibitor), or 20S proteasome inhibitor epigallocatechin gallate (EGCG). Each graphical representation indicates the mean±SD of at least three independent cultures relative to control (DMSO-treated) cells. (B) Cell extracts from SKBR3 human breast carcinoma cells, treated either with 20 μM PES or 1 μM 17-AAG for 24 h, were immunoprecipitated (IP) using anti-HSP70 or anti-HSP90 antibody. […] MTT assays of MCF7 human breast carcinoma cells pretreated with DMSO, or 5 μM PES for 1 h, followed by the addition of indicated amount of 17-AAG for 47 h. The results represent the mean±SD of at least three independent analysis of cultures relative to control (DMSO-treated) cells. […]\nCell viability assays were performed using an MTT (methyl thiazolyl tetrazolium) colorimetric assay (Roche Applied Science, Cat. No. 11 465 007 001), with the following modifications. […] The metabolized insoluble formazan crystals were then solubilized using 0.5 ml of the Solubilization solution (10% SDS in 0.01M HCl) per well, and the resulting colored solutions were spectrophotometrically quantified at an absorbance of 570 nm."}, "caspase-3, caspase-8": {"system": "caspase-3, caspase-8", "assay": "Western blot for caspase cleavage", "assay_type": "cell-based, human"}, "FADU cells": {"system": "FADU cells", "assay": "Colony formation assay with gamma radiation", "assay_type": "cell-based, human", "details": "PES 10 μM + 10 Gy", "method": "(§2) Fadu or Scc 61 (squamous cell carcinoma of the head and neck) cell lines were grown in DMEM supplemented with 10% fetal bovine serum and antibiotics. Cells were pre-treated with PES (10 μM) for 24 hr after which they were subject to gamma radiation (either 2 or 10 Gy) and plated at different densities in 6 well plates; the wells depicted were plated at 2000 cells/well. After 10 days, colonies were stained with crystal violet."}, "Scc61 cells": {"system": "Scc61 cells", "assay": "Colony formation assay with gamma radiation", "assay_type": "cell-based, human", "details": "PES + 2 Gy", "method": "as §2"}},
  "data": [
    {"smiles": "NS(=O)(=O)C#Cc1ccccc1", "note": "[PES, 2-Phenylethynesulfonamide]", "values": [
      {"measurement": "binding of HSP70 to B-PES matrix with competitor", "setting": "HSP70; H1299 cells, excess (25×) untagged PES 1 h, then 20 μM B-PES 5 h", "result": "Binding of HSP70 to the matrix is reduced"},
      {"measurement": "B-PES/HSP70 complex formation", "setting": "HSP70; purified HSP70, 0.25 mM B-PES, 0.125 mM untagged PES", "result": "reduces B-PES/HSP70 complex formation"},
      {"measurement": "IC50", "setting": "tumor cell lines; Homo sapiens, various tumor cell lines, read-out: half maximal concentration to exert cytotoxic effect (IC50)", "result": "4 to 10", "unit": "µM"},
      {"measurement": "cell viability, dose response", "setting": "tumor cell lines; all tumor cell lines examined", "result": "dose-dependent loss of cell viability"},
      {"measurement": "cytotoxicity at 20 μM", "setting": "MTT cell viability assay", "result": "> 50", "unit": "%"},
      {"measurement": "newly-synthesized proteins in the detergent-insoluble fraction", "setting": "MiaPaCa2 cells", "result": "increase in the newly-synthesized proteins in the detergent-insoluble fraction"},
      {"measurement": "cell killing by 17-AAG", "setting": "[1]", "result": "sensitizes cells to cell killing by 17-AAG"},
      {"measurement": "cleavage of caspase-3, caspase-8 or PARP", "setting": "caspase-3, caspase-8; PES 20 μM alone", "result": "not accompanied by cleavage of caspase-3, caspase-8, or PARP"},
      {"measurement": "caspase-cleavage products after cisplatin", "setting": "caspase-3, caspase-8; co-treatment with cisplatin", "result": "effectively inhibited the appearance of these caspase-cleavage products"},
      {"measurement": "colony formation with radiation", "setting": "FADU cells", "result": "combine effectively to reduce the capacity to form colonies"},
      {"measurement": "colony formation with radiation", "setting": "Scc61 cells", "result": "effectively diminished the capacity of these cells to form colonies"}
    ]}
  ]
}
